Measurements taken from ChEMBL document CHEMBL1201862, “PubChem BioAssay data set” (2004).
Blank lines part the entries; values can stand above or below the compound they belong to. Active and inactive are the calls of the source.

Experiments:
[1] = target: Cell division cycle 7-related protein kinase (Homo sapiens, UniProt O00311); type: functional;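 also: value obtained from a kinome-wide kinase panel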
[2] = target: Cyclin-dependent kinase 19 (Homo sapiens, UniProt Q9BWU1); assay: Navigating the Kinome. Panel member name: CDC2L6; type: functional
Bcl-2-related protein A1 = target: T1, Bcl-2-related protein A1 (Mus musculus, UniProt Q07440); type: functional;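 also: confirmatory dose–response counterscreen on Bfl-1, used to check hits from a UBC13 polyubiquitin inhibitor campaign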
T1 sequence (Q07440 whole entry): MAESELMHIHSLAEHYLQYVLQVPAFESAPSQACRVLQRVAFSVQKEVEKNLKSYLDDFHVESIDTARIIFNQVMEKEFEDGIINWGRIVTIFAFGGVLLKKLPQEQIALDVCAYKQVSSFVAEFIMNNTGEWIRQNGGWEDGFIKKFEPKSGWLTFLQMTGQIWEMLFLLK

[3] = target: T2, Apoptotic protease-activating factor 1 (Homo sapiens, UniProt O14727); assay: SAR analysis of small molecule inhibitors of Apaf-1 in a Fluorescent assay.; type: functional; conditions: read-out: IC50_Mean
T2 sequence (O14727 whole entry): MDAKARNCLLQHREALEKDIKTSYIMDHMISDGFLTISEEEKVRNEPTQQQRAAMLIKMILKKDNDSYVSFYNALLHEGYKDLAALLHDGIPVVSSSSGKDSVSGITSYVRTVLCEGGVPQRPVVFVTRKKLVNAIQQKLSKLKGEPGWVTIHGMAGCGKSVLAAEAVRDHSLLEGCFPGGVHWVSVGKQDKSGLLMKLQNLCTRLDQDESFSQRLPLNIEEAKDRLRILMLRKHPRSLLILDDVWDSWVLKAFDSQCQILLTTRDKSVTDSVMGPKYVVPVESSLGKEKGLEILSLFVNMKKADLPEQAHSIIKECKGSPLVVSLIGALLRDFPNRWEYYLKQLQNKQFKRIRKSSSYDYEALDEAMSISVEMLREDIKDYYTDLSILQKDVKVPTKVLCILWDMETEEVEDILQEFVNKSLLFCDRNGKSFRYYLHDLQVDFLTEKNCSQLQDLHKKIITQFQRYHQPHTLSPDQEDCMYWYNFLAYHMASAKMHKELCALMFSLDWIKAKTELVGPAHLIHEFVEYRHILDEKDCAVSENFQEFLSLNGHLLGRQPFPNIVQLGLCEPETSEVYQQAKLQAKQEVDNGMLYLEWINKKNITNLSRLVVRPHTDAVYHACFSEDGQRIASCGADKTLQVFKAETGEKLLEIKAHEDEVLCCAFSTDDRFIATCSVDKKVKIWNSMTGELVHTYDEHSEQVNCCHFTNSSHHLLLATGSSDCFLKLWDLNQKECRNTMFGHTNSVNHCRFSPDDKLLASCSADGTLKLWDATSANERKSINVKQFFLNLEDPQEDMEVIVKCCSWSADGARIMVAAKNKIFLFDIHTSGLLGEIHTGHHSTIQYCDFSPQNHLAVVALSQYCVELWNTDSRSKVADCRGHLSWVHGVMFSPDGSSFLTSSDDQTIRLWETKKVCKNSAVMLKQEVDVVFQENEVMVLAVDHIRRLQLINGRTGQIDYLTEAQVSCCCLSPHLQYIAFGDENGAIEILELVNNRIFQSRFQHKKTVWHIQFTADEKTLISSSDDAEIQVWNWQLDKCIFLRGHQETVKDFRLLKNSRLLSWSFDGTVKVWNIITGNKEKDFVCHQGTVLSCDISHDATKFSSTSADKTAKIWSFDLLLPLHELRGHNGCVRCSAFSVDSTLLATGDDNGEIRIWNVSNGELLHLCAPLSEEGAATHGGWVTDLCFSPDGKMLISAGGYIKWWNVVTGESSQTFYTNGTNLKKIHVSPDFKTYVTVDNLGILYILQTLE

SUMO-activating enzyme [4] = target: T3, SUMO-activating enzyme (Homo sapiens, UniProt Q9UBT2); assay: blockers of SAE1/SAE2–UBC9 SUMO transfer – biochemical, HTRF, uHTS, primary screen (AID 2006); type: protein-complex assay
[5] = target: T4, Rac GTPase-activating protein 1 (Homo sapiens, UniProt Q9H0H5); assay: blockers of MgcRacGAP-driven Rac1 GTP hydrolysis – biochemical, ADP Hunter fluorescence, primary and confirmatory, confirmation (AID 624330); type: functional
T4 sequence (Q9H0H5 whole entry): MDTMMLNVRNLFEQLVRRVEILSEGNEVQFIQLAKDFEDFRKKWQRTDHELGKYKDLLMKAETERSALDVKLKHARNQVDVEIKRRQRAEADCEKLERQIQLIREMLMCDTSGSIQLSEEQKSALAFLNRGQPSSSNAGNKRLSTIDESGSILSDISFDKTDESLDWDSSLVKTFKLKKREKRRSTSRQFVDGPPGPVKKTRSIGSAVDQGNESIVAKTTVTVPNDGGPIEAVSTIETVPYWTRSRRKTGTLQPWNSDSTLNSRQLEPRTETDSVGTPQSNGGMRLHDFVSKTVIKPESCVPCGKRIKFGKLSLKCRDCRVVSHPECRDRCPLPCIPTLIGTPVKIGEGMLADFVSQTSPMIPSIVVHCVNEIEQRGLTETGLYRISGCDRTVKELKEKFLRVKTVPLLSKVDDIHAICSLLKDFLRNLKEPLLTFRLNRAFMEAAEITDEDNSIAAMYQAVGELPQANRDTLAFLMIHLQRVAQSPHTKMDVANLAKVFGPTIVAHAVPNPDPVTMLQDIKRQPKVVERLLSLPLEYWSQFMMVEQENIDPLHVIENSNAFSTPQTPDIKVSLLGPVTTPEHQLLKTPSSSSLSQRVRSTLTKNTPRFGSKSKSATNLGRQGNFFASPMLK

[6] = target: T5, Ubiquitin-conjugating enzyme E2 N (Homo sapiens, UniProt P61088); type: functional
T5 sequence (P61088 whole entry): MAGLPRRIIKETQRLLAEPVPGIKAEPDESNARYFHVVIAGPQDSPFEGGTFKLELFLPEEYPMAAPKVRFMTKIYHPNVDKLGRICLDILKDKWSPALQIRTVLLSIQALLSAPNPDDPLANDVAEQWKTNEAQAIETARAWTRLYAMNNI

[7] = target: 26S proteasome non-ATPase regulatory subunit 14 (Homo sapiens, UniProt O00487); assay: inhibition of proteasome subunit RPN11 – biochemical, fluorescence polarization, uHTS hits, confirmation (AID 602368); type: functional
[8] = target: 72 kDa type IV collagenase (Homo sapiens, UniProt P08253); assay: Dose Response validation of uHTS RPN11 inhibitor hits using a MMP-2 Fluorescence assay.; type: functional
Prothrombin = Prothrombin (Bos taurus, UniProt P00735); assay: thrombin protease inhibitors – biochemical, fluorescence polarization, uHTS hits, dose response (AID 602369); type: functional
[9] = target: T2, Apoptotic protease-activating factor 1; type: functional
[10] = target: T6, DNA repair protein RAD52 homolog (Homo sapiens, UniProt P43351); type: functional, biochemical
T6 sequence (P43351 whole entry): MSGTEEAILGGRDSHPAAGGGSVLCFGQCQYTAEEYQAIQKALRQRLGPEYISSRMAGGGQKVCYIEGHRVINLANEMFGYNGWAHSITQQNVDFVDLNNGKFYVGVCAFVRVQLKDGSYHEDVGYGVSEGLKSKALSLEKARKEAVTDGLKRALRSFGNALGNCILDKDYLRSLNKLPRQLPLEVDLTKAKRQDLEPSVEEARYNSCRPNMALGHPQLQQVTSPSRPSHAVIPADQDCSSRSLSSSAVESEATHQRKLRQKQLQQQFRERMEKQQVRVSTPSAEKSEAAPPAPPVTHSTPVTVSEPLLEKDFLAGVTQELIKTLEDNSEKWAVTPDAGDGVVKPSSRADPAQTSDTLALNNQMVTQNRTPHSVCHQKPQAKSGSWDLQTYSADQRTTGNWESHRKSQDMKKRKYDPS

SUMO-activating enzyme [11] = target: T3, SUMO-activating enzyme; assay: blockers of UBC9-mediated SUMO conjugation – biochemical, AlphaScreen, SUMOylation inhibitor project, confirmation (AID 2018); type: functional
[12] = viability loss in HeLa cells – cytotoxicity control for MgcRacGAP inhibitor project, dose response (AID 624300); type: functional
[13] = target: T5, Ubiquitin-conjugating enzyme E2 N; type: functional; remark: listed apart in the source
[14] = target: E3 ubiquitin-protein ligase XIAP (Homo sapiens, UniProt P98170); assay: Counter Screen using XIAP-Bir3 for Chemical Antagonists of Bir1/2 domains of IAP-family anti-apoptotic proteins. [Related pubchem assays (depositor defined):AID1018, AID1449, AID1514, AID1638, AID1749, AID1750, AID488957, AID488963]
[15] = target: Glycogen synthase kinase-3 alpha (Homo sapiens, UniProt P49840); assay: GSK3A enzyme blockers, homolog specificity check – biochemical, microfluidics, dry powder samples, set 2, selectivity assay for GSK3beta inhibitor project, dose response (AID 623978); type: functional
[16] = target: Glycogen synthase kinase-3 beta (Homo sapiens, UniProt P49841); assay: inhibition of human GSK3B activity – biochemical, microfluidics, dry powder samples, set 2, dose response (AID 623989); type: functional
Sequence of Glycogen synthase kinase-3 beta (P49841 whole entry): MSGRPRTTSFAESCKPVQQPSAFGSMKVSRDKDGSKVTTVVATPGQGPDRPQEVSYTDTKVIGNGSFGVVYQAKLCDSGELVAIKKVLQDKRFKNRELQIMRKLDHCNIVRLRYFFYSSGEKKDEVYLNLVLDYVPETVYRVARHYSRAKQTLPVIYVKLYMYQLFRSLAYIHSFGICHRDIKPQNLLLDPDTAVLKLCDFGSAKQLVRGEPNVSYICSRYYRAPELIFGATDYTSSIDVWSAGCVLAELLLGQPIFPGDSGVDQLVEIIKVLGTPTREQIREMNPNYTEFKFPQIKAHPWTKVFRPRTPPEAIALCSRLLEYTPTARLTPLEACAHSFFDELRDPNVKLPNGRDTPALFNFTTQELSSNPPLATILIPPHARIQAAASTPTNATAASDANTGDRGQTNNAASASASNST

T3 sequence (Q9UBE0 whole entry): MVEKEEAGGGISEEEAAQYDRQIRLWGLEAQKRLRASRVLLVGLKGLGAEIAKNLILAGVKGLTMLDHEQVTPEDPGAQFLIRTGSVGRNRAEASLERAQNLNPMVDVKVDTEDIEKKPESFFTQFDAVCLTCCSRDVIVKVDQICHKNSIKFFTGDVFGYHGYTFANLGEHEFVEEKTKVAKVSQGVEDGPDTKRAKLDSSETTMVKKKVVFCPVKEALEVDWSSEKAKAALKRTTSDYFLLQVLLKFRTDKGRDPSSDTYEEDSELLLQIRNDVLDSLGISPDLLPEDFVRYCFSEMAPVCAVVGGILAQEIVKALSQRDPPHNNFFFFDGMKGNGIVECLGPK
T3 sequence (Q9UBT2 whole entry): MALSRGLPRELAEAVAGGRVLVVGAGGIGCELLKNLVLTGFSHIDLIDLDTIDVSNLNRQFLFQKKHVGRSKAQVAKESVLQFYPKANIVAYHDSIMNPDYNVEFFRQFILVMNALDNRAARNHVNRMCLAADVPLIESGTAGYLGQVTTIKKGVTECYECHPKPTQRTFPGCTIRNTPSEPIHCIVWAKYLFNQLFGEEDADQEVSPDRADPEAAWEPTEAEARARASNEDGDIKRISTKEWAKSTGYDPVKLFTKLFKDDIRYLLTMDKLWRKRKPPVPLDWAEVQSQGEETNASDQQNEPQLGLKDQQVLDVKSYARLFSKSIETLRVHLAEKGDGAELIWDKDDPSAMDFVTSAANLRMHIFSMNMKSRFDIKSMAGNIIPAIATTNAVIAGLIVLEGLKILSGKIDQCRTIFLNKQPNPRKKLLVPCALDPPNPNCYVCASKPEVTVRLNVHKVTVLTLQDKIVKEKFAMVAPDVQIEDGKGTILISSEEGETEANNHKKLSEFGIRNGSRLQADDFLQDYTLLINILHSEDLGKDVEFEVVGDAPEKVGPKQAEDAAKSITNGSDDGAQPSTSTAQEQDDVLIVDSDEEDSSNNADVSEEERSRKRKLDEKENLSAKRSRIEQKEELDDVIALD
Sequence of Cyclin-dependent kinase 19 (Q9BWU1 whole entry): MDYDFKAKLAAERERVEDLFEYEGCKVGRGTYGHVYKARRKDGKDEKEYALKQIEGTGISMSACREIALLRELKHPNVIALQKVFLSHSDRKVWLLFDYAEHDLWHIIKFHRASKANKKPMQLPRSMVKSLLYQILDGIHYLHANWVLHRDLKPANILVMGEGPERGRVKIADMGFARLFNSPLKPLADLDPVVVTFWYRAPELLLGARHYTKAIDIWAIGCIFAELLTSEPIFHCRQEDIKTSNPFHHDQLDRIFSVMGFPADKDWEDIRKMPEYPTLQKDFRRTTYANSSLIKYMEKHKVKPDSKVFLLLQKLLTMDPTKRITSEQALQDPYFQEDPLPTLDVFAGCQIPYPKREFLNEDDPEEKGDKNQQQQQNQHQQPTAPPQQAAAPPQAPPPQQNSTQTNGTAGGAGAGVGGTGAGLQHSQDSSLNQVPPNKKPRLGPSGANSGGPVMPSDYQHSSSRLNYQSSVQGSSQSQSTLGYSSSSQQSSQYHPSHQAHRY
Sequence of Glycogen synthase kinase-3 alpha (P49840 whole entry): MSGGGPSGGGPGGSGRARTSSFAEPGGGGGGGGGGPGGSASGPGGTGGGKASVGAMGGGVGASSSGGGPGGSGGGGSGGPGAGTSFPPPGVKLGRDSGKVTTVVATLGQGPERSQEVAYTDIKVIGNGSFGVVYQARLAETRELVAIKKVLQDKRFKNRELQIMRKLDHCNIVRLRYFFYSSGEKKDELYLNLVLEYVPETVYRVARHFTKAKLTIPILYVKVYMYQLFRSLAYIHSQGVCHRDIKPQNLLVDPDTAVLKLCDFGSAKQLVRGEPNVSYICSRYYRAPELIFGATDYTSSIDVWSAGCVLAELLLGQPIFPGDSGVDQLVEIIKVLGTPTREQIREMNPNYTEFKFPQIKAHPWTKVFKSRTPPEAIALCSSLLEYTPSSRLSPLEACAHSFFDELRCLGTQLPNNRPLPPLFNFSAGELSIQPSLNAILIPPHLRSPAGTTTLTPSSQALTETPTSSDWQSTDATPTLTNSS
Sequence of Cell division cycle 7-related protein kinase (O00311 whole entry): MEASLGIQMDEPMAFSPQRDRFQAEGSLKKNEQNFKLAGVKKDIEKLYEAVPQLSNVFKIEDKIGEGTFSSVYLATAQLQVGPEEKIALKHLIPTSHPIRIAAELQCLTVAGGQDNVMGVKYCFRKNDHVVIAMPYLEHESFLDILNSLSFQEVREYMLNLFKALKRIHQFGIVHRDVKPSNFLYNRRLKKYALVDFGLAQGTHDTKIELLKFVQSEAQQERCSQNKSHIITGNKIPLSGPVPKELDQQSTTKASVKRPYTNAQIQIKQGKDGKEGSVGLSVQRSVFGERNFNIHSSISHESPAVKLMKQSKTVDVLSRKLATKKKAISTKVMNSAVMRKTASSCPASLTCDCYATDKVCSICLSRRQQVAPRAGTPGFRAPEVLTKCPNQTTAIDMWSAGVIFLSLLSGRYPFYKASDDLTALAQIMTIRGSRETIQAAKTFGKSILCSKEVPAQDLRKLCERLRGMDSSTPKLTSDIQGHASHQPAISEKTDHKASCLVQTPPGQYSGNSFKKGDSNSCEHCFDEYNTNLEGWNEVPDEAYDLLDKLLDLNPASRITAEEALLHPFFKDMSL
Sequence of E3 ubiquitin-protein ligase XIAP (P98170 whole entry): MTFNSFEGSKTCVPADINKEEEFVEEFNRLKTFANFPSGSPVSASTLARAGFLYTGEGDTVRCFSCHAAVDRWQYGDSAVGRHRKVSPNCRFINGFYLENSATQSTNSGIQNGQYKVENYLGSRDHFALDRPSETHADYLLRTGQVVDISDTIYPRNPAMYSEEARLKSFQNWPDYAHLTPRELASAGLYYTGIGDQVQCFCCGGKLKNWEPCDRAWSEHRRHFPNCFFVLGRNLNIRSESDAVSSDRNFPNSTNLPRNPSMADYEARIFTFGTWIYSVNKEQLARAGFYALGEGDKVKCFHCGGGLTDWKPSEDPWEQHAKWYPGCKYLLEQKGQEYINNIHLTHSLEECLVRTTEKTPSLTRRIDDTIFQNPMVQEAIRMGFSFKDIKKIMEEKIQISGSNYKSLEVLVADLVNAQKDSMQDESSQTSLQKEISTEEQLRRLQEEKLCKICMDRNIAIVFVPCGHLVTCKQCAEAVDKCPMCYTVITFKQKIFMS
Sequence of 72 kDa type IV collagenase (P08253 whole entry): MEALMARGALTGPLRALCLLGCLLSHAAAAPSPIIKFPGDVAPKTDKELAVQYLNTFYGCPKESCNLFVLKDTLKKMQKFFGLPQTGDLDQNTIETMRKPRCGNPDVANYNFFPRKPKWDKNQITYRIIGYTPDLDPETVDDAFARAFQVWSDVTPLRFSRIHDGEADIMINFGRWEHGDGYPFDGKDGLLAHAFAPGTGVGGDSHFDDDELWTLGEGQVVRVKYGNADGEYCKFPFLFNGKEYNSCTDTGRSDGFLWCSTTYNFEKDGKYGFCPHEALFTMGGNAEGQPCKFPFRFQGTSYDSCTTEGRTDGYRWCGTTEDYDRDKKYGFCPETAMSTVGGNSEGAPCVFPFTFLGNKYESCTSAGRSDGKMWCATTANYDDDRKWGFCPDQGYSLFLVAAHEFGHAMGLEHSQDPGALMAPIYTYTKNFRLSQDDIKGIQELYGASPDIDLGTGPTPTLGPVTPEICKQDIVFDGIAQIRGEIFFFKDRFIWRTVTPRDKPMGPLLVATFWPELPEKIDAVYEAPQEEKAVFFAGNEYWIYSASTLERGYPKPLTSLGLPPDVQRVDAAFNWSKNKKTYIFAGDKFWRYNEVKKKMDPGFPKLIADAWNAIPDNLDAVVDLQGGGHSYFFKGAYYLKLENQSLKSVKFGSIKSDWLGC
Sequence of 26S proteasome non-ATPase regulatory subunit 14 (O00487 whole entry): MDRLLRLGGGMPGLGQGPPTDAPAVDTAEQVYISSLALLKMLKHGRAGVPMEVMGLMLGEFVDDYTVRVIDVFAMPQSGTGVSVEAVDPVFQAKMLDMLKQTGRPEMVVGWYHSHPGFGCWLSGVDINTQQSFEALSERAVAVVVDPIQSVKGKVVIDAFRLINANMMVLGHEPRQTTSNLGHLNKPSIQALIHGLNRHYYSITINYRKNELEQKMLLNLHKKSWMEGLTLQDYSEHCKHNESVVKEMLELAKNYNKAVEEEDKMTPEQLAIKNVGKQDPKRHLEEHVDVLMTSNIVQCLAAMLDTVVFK

Ki [1]: 0.251 µM (active) | Ki [2]: 31.6 µM (active)
Compound: CN(C)CCNC(=O)c1ccc(-c2ccnc(Nc3cccc(F)c3)n2)cc1

IC50 (Bcl-2-related protein A1): 3.44 µM (active) | IC50 [3]: 3.93 µM (active) | IC50 (SUMO-activating enzyme [4]): 11.7 µM (active) | IC50 [5]: 32.4 µM (active) | IC50 [6]: 3.02 µM (active) | IC50 [7]: 23.2 µM (active) | IC50 [8]: > 100 µM (inactive) | IC50 (Prothrombin): 28.7 µM (active) | IC50 [9]: 4.09 µM (active) | AC50 [10]: 10.9 µM (active) | IC50 (SUMO-activating enzyme [11]): 7.12 µM (active) | IC50 [13]: 3.76 µM (active) | IC50 [14]: > 20 µM (inactive)
Compound: CCN(CC)CCOC(=O)c1ccc(N/C=C(/C#N)c2nc(-c3ccc(OC)c(OC)c3)cs2)cc1
CC50 [12]: 92.3 µM (active)

AC50 [15]: 1.87 µM (active) | AC50 [16]: 0.509 µM (active)
Compound: COC(=O)c1ccc(CSc2ccc3nnc(-c4ccc(F)cc4)n3n2)o1
